Reference: ChEMBL document CHEMBL1201862, “PubChem BioAssay data set” (2004)
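These data come from cells grown in 96-well plates and exposed to compound for 48 hours at five concentrations. Here, GI50 denotes the concentration required for 50% inhibition of growth.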 Activity calls are given as the source filed them. Rule as the data show it: active = GI50 up to about 1.1 µM and inactive = higher.

Experiments:
Experiment in all cases: growth of human tumour cells (NCI), 48 h
[1] = system: HCT-116
[2] = system: HL-60
[3] = system: SF-268
[4] = system: MCF7
[5] = system: EKVX
[6] = system: TK-10
[7] = system: 786-0
[8] = system: MDA-MB-435
[9] = system: HCT-15
[10] = system: SK-MEL-28
[11] = system: NCI/ADR-RES
[12] = system: HOP-92
[13] = system: COLO 205
[14] = system: NCI-H460
[15] = system: MDA-N
[16] = system: SR
[17] = system: SF-539
[18] = system: OVCAR-4
[19] = system: MDA-MB-231
[20] = system: CAKI-1

Row | SMILES | GI50 [1] | GI50 [2] | GI50 [3] | GI50 [4] | GI50 [5] | GI50 [6] | GI50 [7] | GI50 [8] | GI50 [9] [µM] | GI50 [10] | GI50 [11] | GI50 [12] | GI50 [13] | GI50 [14] | GI50 [15] | GI50 [16] | GI50 [17] | GI50 [18] | GI50 [19] | GI50 [20]
1 | COc1cc(COC(=O)N2CC=CC2C(=O)O)c([N+](=O)[O-])cc1OC (centres undefined) | > 100 µM (inactive) | > 100 µM (inactive) | > 100 µM (inactive) | > 100 µM (inactive) | > 100 µM (inactive) | > 100 µM (inactive) | > 100 µM (inactive) | > 100 µM (inactive) | > 100 | > 100 µM (inactive) | > 100 µM (inactive) | > 100 µM (inactive) | > 100 µM (inactive) | > 100 µM (inactive) | > 100 µM (inactive) | > 100 µM (inactive) | > 100 µM (inactive) | – | – | –
2 | N#Cc1nc(C(=O)c2ccccc2)oc1N | > 100 µM (inactive) | > 100 µM (inactive) | > 100 µM (inactive) | > 100 µM (inactive) | 65.5 µM (inactive) | > 100 µM (inactive) | > 100 µM (inactive) | > 100 µM (inactive) | > 100 | > 100 µM (inactive) | – | > 100 µM (inactive) | – | – | > 100 µM (inactive) | – | – | > 100 µM (inactive) | > 100 µM (inactive) | > 100 µM (inactive)
3 | Cc1cc(NC(=O)NC(=O)c2ccccc2[N+](=O)[O-])ccc1Oc1ncc(Cl)cn1 | 0.082 µM (active) | 0.0327 µM (active) | 1.9 µM (inactive) | 0.037 µM (active) | – | 19.8 µM (inactive) | 0.0671 µM (active) | 0.0115 µM (active) | 0.113 | 2.37 µM (inactive) | – | – | 0.107 µM (active) | 0.0548 µM (active) | < 0.01 µM (active) | – | 0.0883 µM (active) | 14.1 µM (inactive) | 0.664 µM (active) | –
4 | COC1OC(C)C(NC(=O)OCC(Cl)(Cl)Cl)C2OC(C)(C)OC12 (centres undefined) | > 100 µM (inactive) | > 100 µM (inactive) | > 100 µM (inactive) | > 100 µM (inactive) | > 100 µM (inactive) | > 100 µM (inactive) | > 100 µM (inactive) | > 100 µM (inactive) | > 100 | > 100 µM (inactive) | > 100 µM (inactive) | > 100 µM (inactive) | > 100 µM (inactive) | > 100 µM (inactive) | – | > 100 µM (inactive) | > 100 µM (inactive) | > 100 µM (inactive) | > 100 µM (inactive) | > 100 µM (inactive)
5 | Nc1nc(NNc2cccc(F)c2)cc(=O)[nH]1 | 24 µM (inactive) | 23.1 µM (inactive) | – | 29.5 µM (inactive) | > 100 µM (inactive) | > 100 µM (inactive) | 18.8 µM (inactive) | 25.9 µM (inactive) | 42.5 | > 100 µM (inactive) | 44.9 µM (inactive) | – | 23.3 µM (inactive) | 44 µM (inactive) | – | 27 µM (inactive) | > 100 µM (inactive) | 51.6 µM (inactive) | 42.2 µM (inactive) | –
6 | O=S(=O)(Sc1ccc(Cl)cc1)c1ccc(Cl)cc1 | 14.9 µM (inactive) | 13.6 µM (inactive) | 7.16 µM (inactive) | – | 15.6 µM (inactive) | 21.4 µM (inactive) | 16 µM (inactive) | – | 17.7 | 16.5 µM (inactive) | – | 20.1 µM (inactive) | 17.7 µM (inactive) | 17.1 µM (inactive) | – | 10.5 µM (inactive) | 14.6 µM (inactive) | 20.6 µM (inactive) | – | 19.1 µM (inactive)
7 | CC(=O)OC12c3ccccc3C(c3ccccc31)C1C(=O)N(c3ccccc3O)C(=O)C12 (centres undefined) | > 100 µM (inactive) | 76.9 µM (inactive) | 80.5 µM (inactive) | > 100 µM (inactive) | > 100 µM (inactive) | > 100 µM (inactive) | > 100 µM (inactive) | – | > 100 | > 100 µM (inactive) | > 100 µM (inactive) | – | > 100 µM (inactive) | > 100 µM (inactive) | > 100 µM (inactive) | > 100 µM (inactive) | > 100 µM (inactive) | > 100 µM (inactive) | > 100 µM (inactive) | > 100 µM (inactive)
8 | N#Cc1cc(-c2nc3cc(F)ccc3s2)ccc1N | 9.51 µM (inactive) | > 100 µM (inactive) | 18.1 µM (inactive) | < 0.01 µM (active) | 0.253 µM (active) | 0.034 µM (active) | 27.6 µM (inactive) | > 78.3 µM (inactive) | 0.384 | > 100 µM (inactive) | > 61.2 µM (inactive) | 4.08 µM (inactive) | 1.8 µM (inactive) | < 0.0226 µM (active) | – | – | 13.3 µM (inactive) | 0.718 µM (active) | 8.83 µM (inactive) | > 38.7 µM (inactive)
9 | CCCNC(=O)Nc1ccc2c(c1)Cc1cc(N(CCCl)CCCl)ccc1-2 | 49.9 µM (inactive) | 5.94 µM (inactive) | 21.8 µM (inactive) | 8.73 µM (inactive) | 18.6 µM (inactive) | 61.9 µM (inactive) | 34.6 µM (inactive) | 21.1 µM (inactive) | 16.5 | 11.5 µM (inactive) | 36.2 µM (inactive) | 25.2 µM (inactive) | 8.32 µM (inactive) | 7.16 µM (inactive) | – | 1.32 µM (inactive) | 5.53 µM (inactive) | – | 28.4 µM (inactive) | 22.4 µM (inactive)
10 | C[C@]12CCc3nonc3C1CC[C@@H]1C2CC[C@]2(C)C(=O)/C(=N\O)CC12 (some centres undefined) | > 100 µM (inactive) | 1.03 µM (active) | > 100 µM (inactive) | – | > 100 µM (inactive) | > 100 µM (inactive) | > 100 µM (inactive) | – | > 100 | > 100 µM (inactive) | – | > 100 µM (inactive) | 54.3 µM (inactive) | > 100 µM (inactive) | – | > 100 µM (inactive) | > 100 µM (inactive) | 48.2 µM (inactive) | – | > 100 µM (inactive)
11 | Cc1c(NC(=S)NC(=O)c2ccc([N+](=O)[O-])cc2)c(=O)n(-c2ccccc2)n1C | > 100 µM (inactive) | > 100 µM (inactive) | > 100 µM (inactive) | – | > 100 µM (inactive) | > 100 µM (inactive) | > 100 µM (inactive) | – | > 100 | > 100 µM (inactive) | – | > 100 µM (inactive) | > 100 µM (inactive) | > 100 µM (inactive) | – | > 100 µM (inactive) | > 100 µM (inactive) | > 100 µM (inactive) | – | > 100 µM (inactive)
12 | N#CCSc1c(-c2ccccc2)c(=O)n(-c2ccccc2)c(=S)n1-c1ccccc1 | > 100 µM (inactive) | > 100 µM (inactive) | > 100 µM (inactive) | > 100 µM (inactive) | > 100 µM (inactive) | > 100 µM (inactive) | > 100 µM (inactive) | 90.6 µM (inactive) | > 100 | > 100 µM (inactive) | > 100 µM (inactive) | 4.99 µM (inactive) | > 100 µM (inactive) | > 100 µM (inactive) | 95.3 µM (inactive) | > 100 µM (inactive) | – | > 100 µM (inactive) | – | > 100 µM (inactive)
